Data taken from article PMC6044753, “Diclofenac Identified as a Kynurenine 3-Monooxygenase Binder and Inhibitor by Molecular Similarity Techniques” (ACS Omega, 2018).

Molecular target: kynurenine 3-monooxygenase (KMO) (Homo sapiens, UniProt O15229)
Assay: microdialysis (rapid equilibrium dialysis) with LC-MS on enriched HEK-KMO lysate; supported by cell lysate enzymatic inhibition, IC50 […]
Type: binding

Sequence of kynurenine 3-monooxygenase (KMO) (O15229 whole entry): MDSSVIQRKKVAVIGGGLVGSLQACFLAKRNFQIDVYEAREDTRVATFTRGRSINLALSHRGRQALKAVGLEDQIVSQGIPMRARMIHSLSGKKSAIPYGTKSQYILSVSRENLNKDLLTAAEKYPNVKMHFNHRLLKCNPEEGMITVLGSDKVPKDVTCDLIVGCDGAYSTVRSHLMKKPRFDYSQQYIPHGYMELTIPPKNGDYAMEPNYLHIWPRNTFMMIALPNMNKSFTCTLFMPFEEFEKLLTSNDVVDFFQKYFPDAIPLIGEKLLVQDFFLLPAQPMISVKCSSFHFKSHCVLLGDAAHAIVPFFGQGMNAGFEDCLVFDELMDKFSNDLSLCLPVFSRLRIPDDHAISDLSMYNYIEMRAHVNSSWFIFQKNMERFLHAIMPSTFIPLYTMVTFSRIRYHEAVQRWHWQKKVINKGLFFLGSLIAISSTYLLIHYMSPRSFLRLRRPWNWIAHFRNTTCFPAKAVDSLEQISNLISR

## O=C(O)Cc1ccccc1Nc1c(Cl)cccc1Cl [diclofenac]
  Kd: 64.8 ± 29.5 µM
